From patent publication US20070049627A1, “Treating vulvodynia using prodrugs of GABA analogs” (priority 2005, published 2007)
Where two headings read alike, the source gives them in different places.

Assays:
[1] = Randomized, crossover, fed/fasted single-dose pharmacokinetic study of oral sustained release tablets of compound (3); format: in vivo, human; conditions: for AUC of compound (3) in blood as percent of corresponding AUC of gabapentin in blood / maximum intact compound (3) concentration as percent of corresponding peak gabapentin concentration: sustained release tablets oral
Protocol: A randomized, crossover, fed/fasted single-dose study of the safety, tolerability, and pharmacokinetics of oral administration of 1-{[(α-isobutanoyloxyethoxy)carbonyl]aminomethyl}-1-cyclohexane acetic acid (3) in healthy adult subjects was conducted. The oral sustained release dosage form of Example 6 was used in this study. The study was designed to evaluate the performance of this formulation in humans in comparison with the commercial gabapentin capsule formulation (Neurontin®, Pfizer). Twelve healthy adult volunteers (7 males and 5 females) participated in the study. Mean body weight was 75.6 kg. All subjects received two different treatments in a random order with a one-week washout between treatments. The two treatments were: (A) a single oral dose of Example 1 tablets (2×600 mg) after an overnight fast; and (B) a single oral dose of Example 1 tablets (2×600 mg) after a high fat breakfast.
Blood and plasma samples were collected from all subjects prior to dosing, and at 0.5, 1, 1.5, 2, 3, 4, 6, 8, 12, 18, 24, and 36 hours after dosing. Urine samples were collected from all subjects prior to dosing, and complete urine output was obtained at the 0-4 h, 4-8 h, 8-12 h, 12-18 h, 18-24 h, and 24-36 h intervals after dosing. Blood samples were quenched immediately with methanol and stored frozen at […]. Sample aliquots were prepared for analysis of gabapentin and compound (3) using sensitive and specific LC/MS/MS methods.

[2] = in vivo, po
[3] = system: patients suffering from chronic vulvar pain; conditions: increasing amounts of gabapentin over 12 weeks, cited from earlier work
[4] = Tmax of immediate release formulations following oral administration; conditions: in vivo
[5] = typical value used for comparison; cited from earlier work
[6] = sustained release tablets 2×600 mg oral, fasted subjects
[7] = sustained release tablets 2×600 mg oral, fed subjects

Compound | Cmax of gabapentin in blood ([1]; healthy adults, single oral dose sustained release tablets 2×600 mg, after a high fat breakfast) [ng/mL] | mean±SD Cmax for gabapentin in blood ([1]; healthy adults, single oral dose sustained release tablets 2×600 mg, fasted) [ng/mL] | AUC of gabapentin in blood ([1]; healthy adults, sustained release tablets 2×600 mg oral, after a high fat breakfast) [ng·h/mL] | mean±SD AUC for gabapentin in blood ([1]; healthy adults, sustained release tablets 2×600 mg oral, fasted) [ng·h/mL] | apparent terminal elimination half-life for gabapentin in blood [1, 6] [h] | gabapentin Tmax (time to peak blood levels) [1, 6] [h] | percent of the gabapentin dose recovered in urine [1, 6] [%] | apparent terminal elimination half-life for gabapentin in blood [1, 7] [h] | percent of the gabapentin dose recovered in urine [1, 7] [%] | increase of exposure to gabapentin in the presence of food compared to fasted subjects ([1]; sustained release tablets 2×600 mg oral, fed vs fasted) [%] | gabapentin Tmax (time to peak blood levels) ([1]; sustained release tablets 2×600 mg oral, in the presence of food) [h] | AUC of compound (3) in blood as percent of corresponding AUC of gabapentin in blood ([1]; fasted subjects) [%] | maximum intact compound (3) concentration as percent of corresponding peak gabapentin concentration ([1]; fasted subjects) | AUC of compound (3) in blood as percent of corresponding AUC of gabapentin in blood ([1]; fed subjects) [%] | maximum intact compound (3) concentration as percent of corresponding peak gabapentin concentration ([1]; fed subjects) | Tmax [2] [h] | patients with partial or complete relief of vulvar pain symptoms ([3]; amitriptyline non-responders) | patients reporting side effects such as headaches, nausea, vomiting, fatigue, and dizziness [3] | Tmax [4] [h] | typical Tmax of immediate release gabapentin [5] [h]
CC(OC(=O)NCC1(CC(=O)O)CCCCC1)OC(=O)C(C)C (stereo not drawn) [compound (3), 1-{[(α-Isobutanoyloxyethoxy)carbonyl]aminomethyl}-1-Cyclohexane Acetic Acid] | 6240 ± 1550 | 4210 ± 1150 | 83000 ± 21800 | 54500 ± 12200 | 6.47 ± 0.77 | 5.08 ± 1.62 | 46.5±15.8 | 5.38 ± 0.80 | 73.7±7.2 | 52 | 8.40 ± 2.07 | 0.3 | approximately 1.0% | < 0.1 | approximately 0.3% | 2 to 2.6 |  |  |  | 
NCC1(CC(=O)O)CCCCC1 [gabapentin] |  |  |  |  |  |  |  |  |  |  |  |  |  |  |  |  | Eighty-two | over half the patients | 2.8 to 3.3 | 2 to 4
